Source: US11224222B2, “Synergistic compositions of dehydroacetic acid and methods for reducing yellowing in various end-user compositions” (ISP Investments LLC, priority 2015, dated 2022)
Like-named read-outs stand apart in the source and are kept apart here.

What was measured:
[1] = Solubility of DHA in aprotic and protic solvents
Text: In order to choose the suitable solvent for preparing non-yellowing DHA composition, the different possible protic, aprotic solvents were selected and evaluated individually and also as their suitable mixture.
In case of aprotic solvents, it was selected based on its compatibility with other ingredients present in the end-user products. Further, the regulatory requirement was also considered as an important element in choosing preferred aprotic solvent for preparing non-yellowing/reduced-yellowing DHA composition of the present application. The high content of DHA can be introduced in the solvent by dispersing or dissolving the DHA in their corresponding aprotic solvents. […] The various solvents selected are disclosed in Table 8.
Further, the applicants have evaluated various protic solvents to understand their ability to render non-yellowing/reduced-yellowing DHA composition for employing in various end-user products that are aqueous in nature.

[2] = Yellowing of DHA in aprotic and protic solvents; format: physicochemical
Text: The various solvents selected are disclosed in Table 8.
The yellowing of DHA increased drastically when aprotic aromatic compounds were present along with DHA due to radical coupling between DHA and such solvents comprising aromatic compounds.
The decomposition of DHA was low at room temperature (RT) and at high temperature, wherein, the small amount of DHA decompose to form a radical and couple by themselves to form traces high of epsilon chromophoric products and if aromatic aprotic solvents are present along with DHA in solution they couple to form a longer chromophore with high intensity yellow color in water.

E. coli (ATCC 8739) = experiment: Synergism study (MIC, synergy index) of DHA with aprotic solvents: E. coli; format: cell-based
Protocol: (§1) Tryptic Soy Broth (TSB) media was used for bacterial evaluations and Yeast Malt Broth (YMB) for fungal evaluations. The compounds DHA or the aprotic solvents were added to the media and serially diluted. After serially diluting the media, 100 μl of a suspension of the testing bacteria or fungi were added to a final concentration of approximately 106 −5 CFU/ml. The inoculated media was then incubated at 32° C. for 2-5 days for bacteria or at 28° C. for 3-7 days for fungi.
(§2) The lowest concentration of each compound or mixtures to inhibit visible growth was taken as the minimum inhibitory concentration (MIC). The MIC's were taken as end points of activity. End points for the mixtures of compound A (DHA) and compound B (aprotic solvent) were then compare with the end points for the pure active ingredient alone.
(§3) Synergism was determined by a commonly used and accepted method described by Kull A. C.; Eisman, P. C.; Sylwestrowicz, H. D. and Mayer, R. L. 1961. […]

[3] = test system: A. brasilensts (ATCC 16404); experiment: Synergism study (MIC, synergy index) of DHA with aprotic solvents: A. brasilensts; format: cell-based
Protocol: as §1, §2, §3

S. aureus (ATCC 6538) = experiment: Synergism study (MIC, synergy index) of DHA with aprotic solvents: S. aureus; format: cell-based
Protocol: as §1, §2, §3

S. aureus = experiment: Preservative Efficacy Test in Lamellar Prolipid formulation: S. aureus; format: cell-based
Text: (§4) The detailed composition of these end-user products comprising DHA solubilized Propyelene Carbonate is described below in detail.

Mold Mixture = experiment: Preservative Efficacy Test in Lamellar Prolipid formulation: Mold Mixture; format: cell-based
Text: as §4

Bacterial Mixture = experiment: Preservative Efficacy Test in Lamellar Prolipid formulation: Bacterial Mixture; format: cell-based
Text: as §4

[4] = DHA in the named protic polar solvent (Table 9)
[5] = DHA in the named protic polar solvent, RT
[6] = DHA in the named aprotic solvent, RT, 1 month

Compound: CCCCCCC(O)CO (stereo not shown) [Capryl glycol]
- % of DHA soluble [1, 4]: 2.5%
- Yellowing at RT For 1 month [2, 5]: Yellow in 30 days

Compound: C1CCCCC1 [Cyclohexane]
- % of DHA soluble [1]: 3-5%
- Yellowing At 50° C. ([2]; DHA in the named aprotic solvent, 50° C., figures in brackets = Gardner color): Slight yellowing (2-3)
- Yellowing at RT For 1 month [2, 6]: No yellowing

Compound: Water
- Yellowing at RT For 1 month ([2]; DHA in Water, pH 4): No yellowing
- Yellowing at RT For 1 month ([2]; DHA in Water, pH 8): Slight yellowing

Compound: Phenethyl ethanol
- % of DHA soluble [1, 4]: 8%
- Yellowing at RT For 1 month [2]: Yellow on day one

Compound: COC(=O)C(C)O (stereo not shown) [Methyl lactate]
- Yellowing at RT For 1 month [2, 6]: No yellow

Compound: Phenethylpropanol
- % of DHA soluble [1]: 8%
- Comments ([1]; pH 8): Crystallize
- Yellowing at RT For 1 month [2, 5]: yellow on day one

Compound: CC1COC(=O)O1 (stereo not shown) [Propylene carbonate, propylene carbonate]
- MIC (E. coli (ATCC 8739); Escherichia coli, ATCC8739, read-out: Solvent (B): MIC of solvent acting alone (QB)): 6250 µg/mL
- Yellowing at RT For 1 month [2, 6]: No yellowing
- MIC ([3]; read-out: Solvent (B): MIC of solvent acting alone (QB)): 6250 µg/mL
- MIC (S. aureus (ATCC 6538); Staphylococcus aureus, ATCC6538, read-out: Solvent (B): MIC of solvent acting alone (QB)): 12500 µg/mL

Compound: CO[C@H]1CO[C@H]2[C@@H]1OC[C@H]2OC [Dimethyl isosorbide]
- % of DHA soluble ([1]; DHA in the named aprotic solvent (Table 8)): 8-10%
- Solvent (B): MIC of solvent acting alone (QB) (E. coli (ATCC 8739)): 12500 ppm
- Solvent (B): MIC of solvent acting alone (QB) [3]: 3125 ppm
- Solvent (B): MIC of solvent acting alone (QB) (S. aureus (ATCC 6538)): 12500 ppm

Compound: CCCCC(O)CO (stereo not shown) [1,2hexanediol]
- Yellowing at RT For 1 month [2, 5]: Yellow in 9 days

Compound: CCCCCCC(O)CO (stereo not shown) [0.5% octanediol]
- Preservative Efficacy Test count, S. aureus, Days 2 (S. aureus; day 2): 4.00E+01
- Preservative Efficacy Test count, S. aureus, Days 7 (S. aureus; day 7): <10
- Preservative Efficacy Test count, S. aureus, Days 14 (S. aureus; day 14): <10
- Preservative Efficacy Test count, S. aureus, Days 21 (S. aureus; day 21): <10
- Preservative Efficacy Test count, S. aureus, Days 28 (S. aureus; day 28): <10
- Preservative Efficacy Test count, Mold Mixture, Days 2 (Mold Mixture; day 2): 2.10E+04
- Preservative Efficacy Test count, Mold Mixture, Days 7 (Mold Mixture; day 7): 1.80E+04
- Preservative Efficacy Test count, Mold Mixture, Days 14 (Mold Mixture; day 14): 4.40E+03
- Preservative Efficacy Test count, Mold Mixture, Days 21 (Mold Mixture; day 21): 4.30E+03
- Preservative Efficacy Test count, Mold Mixture, Days 28 (Mold Mixture; day 28): 5.00E+04
- Preservative Efficacy Test count, Bacterial Mixture, Days 2 (Bacterial Mixture; day 2): <10
- Preservative Efficacy Test count, Bacterial Mixture, Days 7 (Bacterial Mixture; day 7): <10
- Preservative Efficacy Test count, Bacterial Mixture, Days 14 (Bacterial Mixture; day 14): <10
- Preservative Efficacy Test count, Bacterial Mixture, Days 21 (Bacterial Mixture; day 21): <10
- Preservative Efficacy Test count, Bacterial Mixture, Days 28 (Bacterial Mixture; day 28): <10
